Data taken from patent publication US20230081426A1, “COMPOUNDS AND METHODS FOR KRAS MODULATION AND INDICATIONS THEREFOR” (Plexxikon Inc., priority 2020, published 2023).

What was measured:
[1] = target: T1, G12D-mutant human KRAS (amino acid residues 1-188) (Homo sapiens, UniProt P01116, G12D); test: KRAS Binding Disruption Assay (AlphaScreen; biotinylated KRpep-2d analogue or RAF1-RBD), G12D; details: KRAS G12D; geometric mean; read-out: KRAS GMean IC50 (uM) MUTATION: G12D
T1 construct: G12D or G12C-mutant human KRAS (amino acid residues 1-188) with FLAG tag; made in house; host or cells: E. coli
How it was run: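 AlphaScreen readout: signal falls as compound displaces biotinylated KRpep-2d analogue or RAF1-RBD from mutant KRAS. Both partners at 5-20 nM, 1 h binding at 25° C, then 10 μg/mL Anti-Flag acceptor and streptavidin donor beads for 1 h. IC50 by nonlinear regression of % inhibition.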

[2] = target: T2, G12V-mutant human KRAS (amino acid residues 1-188) (Homo sapiens, UniProt P01116, G12V); test: KRAS Binding Competition Assay (AlphaScreen; biotinylated KRpep-2d analogue), G12V; details: geometric mean, read-out: KRAS GMean IC50 (uM) MUTATION: G12V
T2 construct: G12V-mutant human KRAS (amino acid residues 1-188) with FLAG tag was purified from E. coli; made in house; host or cells: E. coli

Structure (SMILES) | IC50 [1] [µM] | IC50 [2] [µM]
CN1CCC[C@H]1COc1nc(N2[C@@H]3CC[C@H]2CN(C(=O)NCC(N)=O)C3)c2ccc(-c3cc(O)cc4ccccc34)cc2n1 [P-0211, (1R,5S)-N-(2-amino-2-oxoethyl)-8-(7-(3-hydroxynaphthalen-1-yl)-2-(((S)-1-methylpyrrolidin-2-yl)methoxy)quinazolin-4-yl)-3,8-diazabicyclo[3.2.1]octane-3-carboxamide] | 10 to 100 | 10 to 100
CN1CCC[C@H]1COc1nc(N2[C@@H]3CC[C@H]2CN(C(=O)NC2COCC2(C)C)C3)c2ccc(-c3cc(O)cc4ccccc34)cc2n1 (stereo partly drawn) [P-0212, (1R,5S)-N-(4,4-dimethyltetrahydrofuran-3-yl)-8-(7-(3-hydroxynaphthalen-1-yl)-2-(((S)-1-methylpyrrolidin-2-yl)methoxy)quinazolin-4-yl)-3,8-diazabicyclo[3.2.1]octane-3-carboxamide] | 10 to 100 | 10 to 100
CN1CCC[C@H]1COc1nc(N2[C@@H]3CC[C@H]2CN(C(=O)NO)C3)c2ccc(-c3cc(O)cc4ccccc34)cc2n1 [P-0213, (1R,5S)-N-hydroxy-8-(7-(3-hydroxynaphthalen-1-yl)-2-(((S)-1-methylpyrrolidin-2-yl)methoxy)quinazolin-4-yl)-3,8-diazabicyclo[3.2.1]octane-3-carboxamide] | 10 to 100 | 10 to 100
CONC(=O)N1C[C@H]2CC[C@@H](C1)N2c1nc(OC[C@@H]2CCCN2C)nc2cc(-c3cc(O)cc4ccccc34)ccc12 [P-0214, (1R,5S)-8-(7-(3-hydroxynaphthalen-1-yl)-2-(((S)-1-methylpyrrolidin-2-yl)methoxy)quinazolin-4-yl)-N-methoxy-3,8-diazabicyclo[3.2.1]octane-3-carboxamide] | 10 to 100 | 10 to 100
CCN1CCC(NC(=O)N2C[C@H]3CC[C@@H](C2)N3c2nc(OC[C@@H]3CCCN3C)nc3cc(-c4cc(O)cc5ccccc45)ccc23)C1 (stereo partly drawn) [P-0215, (1R,5S)-N-(1-ethylpyrrolidin-3-yl)-8-(7-(3-hydroxynaphthalen-1-yl)-2-(((S)-1-methylpyrrolidin-2-yl)methoxy)quinazolin-4-yl)-3,8-diazabicyclo[3.2.1]octane-3-carboxamide] | 10 to 100 | 100 to 1000
CN1CCC[C@H]1COc1nc(N2[C@@H]3CC[C@H]2CN(C(=O)NCc2ccccn2)C3)c2ccc(-c3cc(O)cc4ccccc34)cc2n1 [P-0216, (1R,5S)-8-(7-(3-hydroxynaphthalen-1-yl)-2-(((S)-1-methylpyrrolidin-2-yl)methoxy)quinazolin-4-yl)-N-(pyridin-2-ylmethyl)-3,8-diazabicyclo[3.2.1]octane-3-carboxamide] | 10 to 100 | 10 to 100
CN1CCC[C@H]1COc1nc(N2[C@@H]3CC[C@H]2CN(C(=O)C(N)=O)C3)c2ccc(-c3cc(O)cc4ccccc34)cc2n1 [P-0217, 2-((1R,5S)-8-(7-(3-hydroxynaphthalen-1-yl)-2-(((S)-1-methylpyrrolidin-2-yl)methoxy)quinazolin-4-yl)-3,8-diazabicyclo[3.2.1]octan-3-yl)-2-oxoacetamide] | 10 to 100 | 10 to 100
CN1CCC[C@H]1COc1nc(N2[C@@H]3CC[C@H]2CN(C(=O)CCC(N)=O)C3)c2ccc(-c3cc(O)cc4ccccc34)cc2n1 [P-0218, 4-((1R,5S)-8-(7-(3-hydroxynaphthalen-1-yl)-2-(((S)-1-methylpyrrolidin-2-yl)methoxy)quinazolin-4-yl)-3,8-diazabicyclo[3.2.1]octan-3-yl)-4-oxobutanamide] | 10 to 100 | 10 to 100
CN1CCC[C@H]1COc1nc(N2[C@@H]3CC[C@H]2CN(C(=O)C(O)CO)C3)c2ccc(-c3cc(O)cc4ccccc34)cc2n1 (stereo partly drawn) [P-0219, 2,3-dihydroxy-1-((1R,5S)-8-(7-(3-hydroxynaphthalen-1-yl)-2-(((S)-1-methylpyrrolidin-2-yl)methoxy)quinazolin-4-yl)-3,8-diazabicyclo[3.2.1]octan-3-yl)propan-1-one] | 10 to 100 | 10 to 100
C[C@@H](O)C(=O)N1C[C@H]2CC[C@@H](C1)N2c1nc(OC[C@@H]2CCCN2C)nc2cc(-c3cc(O)cc4ccccc34)ccc12 [P-0220, (R)-2-hydroxy-1-((1R,5S)-8-(7-(3-hydroxynaphthalen-1-yl)-2-(((S)-1-methylpyrrolidin-2-yl)methoxy)quinazolin-4-yl)-3,8-diazabicyclo[3.2.1]octan-3-yl)propan-1-one] | 10 to 100 | 100 to 1000
C[C@H](O)C(=O)N1C[C@H]2CC[C@@H](C1)N2c1nc(OC[C@@H]2CCCN2C)nc2cc(-c3cc(O)cc4ccccc34)ccc12 [P-0221, (S)-2-hydroxy-1-((1R,5S)-8-(7-(3-hydroxynaphthalen-1-yl)-2-(((S)-1-methylpyrrolidin-2-yl)methoxy)quinazolin-4-yl)-3,8-diazabicyclo[3.2.1]octan-3-yl)propan-1-one] | 10 to 100 | 10 to 100
CN1CCC[C@H]1COc1nc(N2[C@@H]3CC[C@H]2CN(C(=O)C2CCC(=O)N2)C3)c2ccc(-c3cc(O)cc4ccccc34)cc2n1 (stereo partly drawn) [P-0222, 5-((1R,5S)-8-(7-(3-hydroxynaphthalen-1-yl)-2-(((S)-1-methylpyrrolidin-2-yl)methoxy)quinazolin-4-yl)-3,8-diazabicyclo[3.2.1]octane-3-carbonyl)pyrrolidin-2-one] | 10 to 100 | 100 to 1000
CN1CCC[C@H]1COc1nc(N2[C@@H]3CC[C@H]2CN(C(=O)[C@@H](N)CO)C3)c2ccc(-c3cc(O)cc4ccccc34)cc2n1 [P-0223, (S)-2-amino-3-hydroxy-1-((1R,5S)-8-(7-(3-hydroxynaphthalen-1-yl)-2-(((S)-1-methylpyrrolidin-2-yl)methoxy)quinazolin-4-yl)-3,8-diazabicyclo[3.2.1]octan-3-yl)propan-1-one] | 10 to 100 | 10 to 100
CN1CCC[C@H]1COc1nc(N2[C@@H]3CC[C@H]2CN(C(=O)c2ncc[nH]2)C3)c2ccc(-c3cc(O)cc4ccccc34)cc2n1 [P-0224, ((1R,5S)-8-(7-(3-hydroxynaphthalen-1-yl)-2-(((S)-1-methylpyrrolidin-2-yl)methoxy)quinazolin-4-yl)-3,8-diazabicyclo[3.2.1]octan-3-yl)(1H-imidazol-2-yl)methanone] | 10 to 100 | 0.0001 to 10
CN1CCC[C@H]1COc1nc(N2[C@@H]3CC[C@H]2CN(CC(=O)Nc2ccccn2)C3)c2ccc(-c3cc(O)cc4ccccc34)cc2n1 [P-0225, 2-((1R,5S)-8-(7-(3-hydroxynaphthalen-1-yl)-2-(((S)-1-methylpyrrolidin-2-yl)methoxy)quinazolin-4-yl)-3,8-diazabicyclo[3.2.1]octan-3-yl)-N-(pyridin-2-yl)acetamide] | 10 to 100 | 10 to 100
CN1CCC[C@H]1COc1nc(N2[C@@H]3CC[C@H]2CN(C2CNC2)C3)c2ccc(-c3cc(O)cc4ccccc34)cc2n1 [P-0226, 4-(4-((1R,5S)-3-(azetidin-3-yl)-3,8-diazabicyclo[3.2.1]octan-8-yl)-2-(((S)-1-methylpyrrolidin-2-yl)methoxy)quinazolin-7-yl)naphthalen-2-ol] | 100 to 1000 | 100 to 1000
CN1CCC[C@H]1COc1nc(N2[C@@H]3CC[C@H]2CN(C(=O)CC(N)=O)C3)c2ccc(-c3cc(O)cc4ccccc34)cc2n1 [P-0227, 3-((1R,5S)-8-(7-(3-hydroxynaphthalen-1-yl)-2-(((S)-1-methylpyrrolidin-2-yl)methoxy)quinazolin-4-yl)-3,8-diazabicyclo[3.2.1]octan-3-yl)-3-oxopropanamide] | 10 to 100 | 100 to 1000
CN1CCC[C@H]1COc1nc(N2[C@@H]3CC[C@H]2CN(C(=O)Cc2cnn(C)c2)C3)c2ccc(-c3cc(O)cc4ccccc34)cc2n1 [P-0228, 1-((1R,5S)-8-(7-(3-hydroxynaphthalen-1-yl)-2-(((S)-1-methylpyrrolidin-2-yl)methoxy)quinazolin-4-yl)-3,8-diazabicyclo[3.2.1]octan-3-yl)-2-(1-methyl-1H-pyrazol-4-yl)ethan-1-one] | 10 to 100 | 100 to 1000
CN1CCC[C@H]1COc1nc(N2[C@@H]3CC[C@H]2CN(C(=O)C(=O)Nc2ccccn2)C3)c2ccc(-c3cc(O)cc4ccccc34)cc2n1 [P-0229, 2-((1R,5S)-8-(7-(3-hydroxynaphthalen-1-yl)-2-(((S)-1-methylpyrrolidin-2-yl)methoxy)quinazolin-4-yl)-3,8-diazabicyclo[3.2.1]octan-3-yl)-2-oxo-N-(pyridin-2-yl)acetamide] | 10 to 100 | 10 to 100
CN1CCC[C@H]1COc1nc(N2[C@@H]3CC[C@H]2CN(C(=O)c2ncn[nH]2)C3)c2ccc(-c3cc(O)cc4ccccc34)cc2n1 [P-0230, ((1R,5S)-8-(7-(3-hydroxynaphthalen-1-yl)-2-(((S)-1-methylpyrrolidin-2-yl)methoxy)quinazolin-4-yl)-3,8-diazabicyclo[3.2.1]octan-3-yl)(1H-1,2,4-triazol-5-yl)methanone] | 10 to 100 | 10 to 100
CN1CCC[C@H]1COc1nc(N2[C@@H]3CC[C@H]2CN(C(=N)N)C3)c2ccc(-c3cc(O)cc4ccccc34)cc2n1 [P-0231, (1R,5S)-8-(7-(3-hydroxynaphthalen-1-yl)-2-(((S)-1-methylpyrrolidin-2-yl)methoxy)quinazolin-4-yl)-3,8-diazabicyclo[3.2.1]octane-3-carboximidamide] | 10 to 100 | 10 to 100
Oc1cc(-c2ccc3c(N4[C@@H]5CC[C@H]4CNC5)nc(CCc4ccccn4)nc3c2)c2ccccc2c1 [P-0232, 4-(4-((1R,5S)-3,8-diazabicyclo[3.2.1]octan-8-yl)-2-(2-(pyridin-2-yl)ethyl)quinazolin-7-yl)naphthalen-2-ol] | 0.0001 to 10 | 10 to 100
